#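 Values below derive from 48-hour exposures of cells grown in 96-well plates, with endpoints linearly interpolated between the two concentrations bracketing the appropriate inhibition level. TGI is the concentration that stops growth completely.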
# Key:
# Assay in all cases: DTP human tumour cell line panel, 48 h
# HCT-15 colon = system: HCT-15 colon
# EKVX NSCLC = system: EKVX NSCLC
# SW-620 colon = system: SW-620 colon
# SK-MEL-28 melanoma = system: SK-MEL-28 melanoma
# HOP-62 NSCLC = system: HOP-62 NSCLC
# NCI-H522 lung = system: NCI-H522 lung
# BT-549 breast = system: BT-549 breast
# HCC-2998 colon = system: HCC-2998 colon
# SK-MEL-5 melanoma = system: SK-MEL-5 melanoma
# MDA-N = system: MDA-N
# HS 578T breast = system: HS 578T breast
# NCI/ADR-RES ovarian = system: NCI/ADR-RES ovarian
# M14 melanoma = system: M14 melanoma
# OVCAR-3 ovarian = system: OVCAR-3 ovarian
# HOP-92 NSCLC = system: HOP-92 NSCLC
# MDA-MB-231 breast = system: MDA-MB-231 breast
# IGROV1 ovarian = system: IGROV1 ovarian
# ACHN renal = system: ACHN renal
# U251 CNS = system: U251 CNS
# TK-10 renal = system: TK-10 renal
# SF-295 CNS = system: SF-295 CNS
# A549 NSCLC = system: A549 NSCLC
# MCF7 breast = system: MCF7 breast
# A498 renal = system: A498 renal
# NCI-H226 lung = system: NCI-H226 lung
# SNB-19 CNS = system: SNB-19 CNS
# SF-268 CNS = system: SF-268 CNS
# HT29 colon = system: HT29 colon
# NCI-H23 lung = system: NCI-H23 lung
# COLO 205 colon = system: COLO 205 colon
# LOX IMVI melanoma = system: LOX IMVI melanoma
# SK-MEL-2 melanoma = system: SK-MEL-2 melanoma
# UACC-257 melanoma = system: UACC-257 melanoma
# SNB-75 CNS = system: SNB-75 CNS
# NCI-H460 lung = system: NCI-H460 lung
# PC-3 prostate = system: PC-3 prostate
# T-47D breast = system: T-47D breast
# 786-0 renal = system: 786-0 renal
# HCT-116 colon = system: HCT-116 colon
# OVCAR-4 ovarian = system: OVCAR-4 ovarian
# OVCAR-8 ovarian = system: OVCAR-8 ovarian
# MALME-3M melanoma = system: MALME-3M melanoma
# UACC-62 melanoma = system: UACC-62 melanoma
# OVCAR-5 ovarian = system: OVCAR-5 ovarian
# SF-539 CNS = system: SF-539 CNS
# SK-OV-3 ovarian = system: SK-OV-3 ovarian
# MDA-MB-435 = system: MDA-MB-435
# CAKI-1 renal = system: CAKI-1 renal
# RXF 393 renal = system: RXF 393 renal
# UO-31 renal = system: UO-31 renal
# SN12C renal = system: SN12C renal
# KM12 colon = system: KM12 colon
# DU-145 prostate = system: DU-145 prostate
# K-562 leukemia = system: K-562 leukemia
# MOLT-4 leukemia = system: MOLT-4 leukemia
# RPMI-8226 leukemia = system: RPMI-8226 leukemia
# SR leukemia = system: SR leukemia
# HL-60(TB) leukemia = system: HL-60(TB) leukemia
# CCRF-CEM leukemia = system: CCRF-CEM leukemia
smiles,measurement,setting,value
COc1ccc(/C=C/c2cnccn2)cc1OC,TGI,HCT-15 colon,> 10 µM
same,TGI,EKVX NSCLC,> 10 µM
same,TGI,SW-620 colon,> 10 µM
same,TGI,SK-MEL-28 melanoma,> 10 µM
same,TGI,HOP-62 NSCLC,> 10 µM
same,TGI,NCI-H522 lung,> 10 µM
same,TGI,BT-549 breast,> 10 µM
same,TGI,HCC-2998 colon,> 10 µM
same,TGI,SK-MEL-5 melanoma,> 10 µM
same,TGI,MDA-N,> 10 µM
same,TGI,HS 578T breast,> 10 µM
same,TGI,NCI/ADR-RES ovarian,> 10 µM
same,TGI,M14 melanoma,> 10 µM
same,TGI,OVCAR-3 ovarian,> 10 µM
same,TGI,HOP-92 NSCLC,> 10 µM
same,TGI,MDA-MB-231 breast,> 10 µM
same,TGI,IGROV1 ovarian,> 10 µM
same,TGI,ACHN renal,> 10 µM
same,TGI,U251 CNS,> 10 µM
same,TGI,TK-10 renal,> 10 µM
same,TGI,SF-295 CNS,> 10 µM
same,TGI,A549 NSCLC,> 10 µM
same,TGI,MCF7 breast,> 10 µM
same,TGI,A498 renal,> 10 µM
same,TGI,NCI-H226 lung,> 10 µM
same,TGI,SNB-19 CNS,> 10 µM
same,TGI,SF-268 CNS,> 10 µM
same,TGI,HT29 colon,> 10 µM
same,TGI,NCI-H23 lung,> 10 µM
same,TGI,COLO 205 colon,> 10 µM
same,TGI,LOX IMVI melanoma,> 10 µM
same,TGI,SK-MEL-2 melanoma,> 10 µM
same,TGI,UACC-257 melanoma,> 10 µM
same,TGI,SNB-75 CNS,> 10 µM
same,TGI,NCI-H460 lung,> 10 µM
same,TGI,PC-3 prostate,> 10 µM
same,TGI,T-47D breast,> 10 µM
same,TGI,786-0 renal,> 10 µM
same,TGI,HCT-116 colon,> 10 µM
same,TGI,OVCAR-4 ovarian,> 10 µM
same,TGI,OVCAR-8 ovarian,> 10 µM
same,TGI,MALME-3M melanoma,> 10 µM
same,TGI,UACC-62 melanoma,> 10 µM
same,TGI,OVCAR-5 ovarian,> 10 µM
same,TGI,SF-539 CNS,> 10 µM
same,TGI,SK-OV-3 ovarian,> 10 µM
same,TGI,MDA-MB-435,> 10 µM
same,TGI,CAKI-1 renal,> 10 µM
same,TGI,RXF 393 renal,> 10 µM
same,TGI,UO-31 renal,> 10 µM
same,TGI,SN12C renal,> 10 µM
same,TGI,KM12 colon,> 10 µM
same,TGI,DU-145 prostate,> 10 µM
O=C1C=C(Nc2ccc(S(=O)(=O)Nc3nccs3)cc2)c2ccccc2C1=O,TGI,HCT-15 colon,79.4 µM
same,TGI,EKVX NSCLC,> 100 µM
same,TGI,SW-620 colon,43 µM
same,TGI,K-562 leukemia,> 100 µM
same,TGI,MOLT-4 leukemia,> 100 µM
same,TGI,SK-MEL-28 melanoma,45.2 µM
same,TGI,HOP-62 NSCLC,29.7 µM
same,TGI,NCI-H522 lung,> 100 µM
same,TGI,BT-549 breast,40.8 µM
same,TGI,HCC-2998 colon,47.3 µM
same,TGI,SK-MEL-5 melanoma,38.7 µM
same,TGI,MDA-N,38.5 µM
same,TGI,HS 578T breast,75.1 µM
same,TGI,NCI/ADR-RES ovarian,95.3 µM
same,TGI,M14 melanoma,42.8 µM
same,TGI,OVCAR-3 ovarian,36 µM
same,TGI,HOP-92 NSCLC,> 100 µM
same,TGI,MDA-MB-231 breast,71.3 µM
same,TGI,IGROV1 ovarian,> 100 µM
same,TGI,ACHN renal,63.5 µM
same,TGI,U251 CNS,48 µM
same,TGI,TK-10 renal,> 100 µM
same,TGI,SF-295 CNS,32.3 µM
same,TGI,A549 NSCLC,> 100 µM
same,TGI,MCF7 breast,36.1 µM
same,TGI,A498 renal,> 100 µM
same,TGI,NCI-H226 lung,70.1 µM
same,TGI,SNB-19 CNS,86.3 µM
same,TGI,RPMI-8226 leukemia,98.5 µM
same,TGI,SF-268 CNS,> 100 µM
same,TGI,HT29 colon,39.3 µM
same,TGI,NCI-H23 lung,> 100 µM
same,TGI,SR leukemia,> 100 µM
same,TGI,LOX IMVI melanoma,48.6 µM
same,TGI,SK-MEL-2 melanoma,82.4 µM
same,TGI,UACC-257 melanoma,> 100 µM
same,TGI,HL-60(TB) leukemia,59.8 µM
same,TGI,CCRF-CEM leukemia,48.1 µM
same,TGI,SNB-75 CNS,66.8 µM
same,TGI,NCI-H460 lung,> 100 µM
same,TGI,PC-3 prostate,> 100 µM
same,TGI,T-47D breast,> 100 µM
same,TGI,786-0 renal,> 100 µM
same,TGI,HCT-116 colon,> 100 µM
same,TGI,OVCAR-4 ovarian,> 100 µM
same,TGI,OVCAR-8 ovarian,47.6 µM
same,TGI,MALME-3M melanoma,48.7 µM
same,TGI,UACC-62 melanoma,53.5 µM
same,TGI,OVCAR-5 ovarian,43.9 µM
same,TGI,SF-539 CNS,41.2 µM
same,TGI,SK-OV-3 ovarian,> 100 µM
same,TGI,MDA-MB-435,33.5 µM
same,TGI,CAKI-1 renal,82.9 µM
same,TGI,RXF 393 renal,> 100 µM
same,TGI,UO-31 renal,> 100 µM
same,TGI,SN12C renal,47.2 µM
same,TGI,KM12 colon,37.7 µM
CCC(=O)OCN(C)c1nc(N(C)COC(=O)CC)nc(N(C)COC(=O)CC)n1,TGI,HCT-15 colon,56 µM
same,TGI,SW-620 colon,> 100 µM
same,TGI,K-562 leukemia,> 100 µM
same,TGI,MOLT-4 leukemia,82.9 µM
same,TGI,SK-MEL-28 melanoma,> 100 µM
same,TGI,HOP-62 NSCLC,> 100 µM
same,TGI,BT-549 breast,> 100 µM
same,TGI,HCC-2998 colon,68.6 µM
same,TGI,SK-MEL-5 melanoma,52.5 µM
same,TGI,MDA-N,> 100 µM
same,TGI,HS 578T breast,> 100 µM
same,TGI,NCI/ADR-RES ovarian,> 100 µM
same,TGI,M14 melanoma,77.3 µM
same,TGI,OVCAR-3 ovarian,> 100 µM
same,TGI,HOP-92 NSCLC,> 100 µM
same,TGI,MDA-MB-231 breast,> 100 µM
same,TGI,IGROV1 ovarian,> 100 µM
same,TGI,U251 CNS,> 100 µM
same,TGI,TK-10 renal,> 100 µM
same,TGI,SF-295 CNS,> 100 µM
same,TGI,MCF7 breast,> 100 µM
same,TGI,A498 renal,> 100 µM
same,TGI,NCI-H226 lung,> 100 µM
same,TGI,SNB-19 CNS,> 100 µM
same,TGI,RPMI-8226 leukemia,76 µM
same,TGI,HT29 colon,98.3 µM
same,TGI,NCI-H23 lung,> 100 µM
same,TGI,COLO 205 colon,59.2 µM
same,TGI,SR leukemia,71 µM
same,TGI,LOX IMVI melanoma,70.3 µM
same,TGI,SK-MEL-2 melanoma,42 µM
same,TGI,UACC-257 melanoma,> 100 µM
same,TGI,CCRF-CEM leukemia,> 100 µM
same,TGI,SNB-75 CNS,> 100 µM
same,TGI,NCI-H460 lung,> 100 µM
same,TGI,PC-3 prostate,> 100 µM
same,TGI,T-47D breast,> 100 µM
same,TGI,HCT-116 colon,64 µM
same,TGI,OVCAR-4 ovarian,> 100 µM
same,TGI,OVCAR-8 ovarian,> 100 µM
same,TGI,MALME-3M melanoma,> 100 µM
same,TGI,UACC-62 melanoma,35.8 µM
same,TGI,OVCAR-5 ovarian,> 100 µM
same,TGI,SK-OV-3 ovarian,> 100 µM
same,TGI,MDA-MB-435,> 100 µM
same,TGI,CAKI-1 renal,> 100 µM
same,TGI,RXF 393 renal,25.5 µM
same,TGI,UO-31 renal,> 100 µM
same,TGI,SN12C renal,> 100 µM
same,TGI,KM12 colon,> 100 µM
same,TGI,DU-145 prostate,> 100 µM
C/C=C\C(CC(=O)NCC(=O)c1c[nH]c2ccccc12)CC(=O)OC (stereo not given),TGI,HCT-15 colon,> 100 µM
same,TGI,EKVX NSCLC,> 100 µM
same,TGI,SW-620 colon,> 100 µM
same,TGI,K-562 leukemia,> 100 µM
same,TGI,MOLT-4 leukemia,> 100 µM
same,TGI,SK-MEL-28 melanoma,> 100 µM
same,TGI,HOP-62 NSCLC,> 100 µM
same,TGI,NCI-H522 lung,> 100 µM
same,TGI,BT-549 breast,> 100 µM
same,TGI,HCC-2998 colon,> 100 µM
same,TGI,SK-MEL-5 melanoma,> 100 µM
same,TGI,MDA-N,> 100 µM
same,TGI,HS 578T breast,> 100 µM
same,TGI,NCI/ADR-RES ovarian,> 100 µM
same,TGI,M14 melanoma,> 100 µM
same,TGI,OVCAR-3 ovarian,> 100 µM
same,TGI,HOP-92 NSCLC,> 100 µM
same,TGI,MDA-MB-231 breast,> 100 µM
same,TGI,IGROV1 ovarian,> 100 µM
same,TGI,ACHN renal,> 100 µM
same,TGI,U251 CNS,> 100 µM
same,TGI,TK-10 renal,> 100 µM
same,TGI,SF-295 CNS,> 100 µM
same,TGI,A549 NSCLC,> 100 µM
same,TGI,MCF7 breast,> 100 µM
same,TGI,A498 renal,> 100 µM
same,TGI,SNB-19 CNS,> 100 µM
same,TGI,RPMI-8226 leukemia,> 100 µM
same,TGI,SF-268 CNS,> 100 µM
same,TGI,HT29 colon,> 100 µM
same,TGI,NCI-H23 lung,> 100 µM
same,TGI,COLO 205 colon,> 100 µM
same,TGI,SR leukemia,> 100 µM
same,TGI,SK-MEL-2 melanoma,> 100 µM
same,TGI,UACC-257 melanoma,> 100 µM
same,TGI,CCRF-CEM leukemia,96.5 µM
same,TGI,SNB-75 CNS,> 100 µM
same,TGI,NCI-H460 lung,> 100 µM
same,TGI,PC-3 prostate,> 100 µM
same,TGI,T-47D breast,> 100 µM
same,TGI,786-0 renal,> 100 µM
same,TGI,HCT-116 colon,> 100 µM
same,TGI,OVCAR-4 ovarian,> 100 µM
same,TGI,OVCAR-8 ovarian,> 100 µM
same,TGI,MALME-3M melanoma,> 100 µM
same,TGI,UACC-62 melanoma,> 100 µM
same,TGI,OVCAR-5 ovarian,> 100 µM
same,TGI,SK-OV-3 ovarian,> 100 µM
same,TGI,MDA-MB-435,> 100 µM
same,TGI,CAKI-1 renal,> 100 µM
same,TGI,RXF 393 renal,> 100 µM
same,TGI,UO-31 renal,> 100 µM
same,TGI,KM12 colon,> 100 µM
same,TGI,DU-145 prostate,> 100 µM

# Source: PubChem BioAssay (NCI)
